Data: US11827627B2, “N-(hydroxyalkyl (hetero)aryl) tetrahydrofuran carboxamides as modulators of sodium channels” (VERTEX PHARMACEUTICALS INCORPORATED, priority 2021, dated 2023)

Biological target: human NaV 1.8 (Homo sapiens, UniProt Q9Y5Y9)
Experiment: E-VIPR assay detecting and measuring NaV inhibition properties
Type: cell-based
Conditions: HEK cells expressing a truncated form of human NaV 1.8; electrical stimulation, membrane potential FRET dyes
Source text: E-VIPR Assay Detecting and Measuring NaV Inhibition Properties
Sodium ion channels are voltage-dependent proteins that can be activated by inducing membrane voltage changes by applying electric fields. The electrical stimulation instrument and methods of use, referred to as E-VIPR, are described in International Publication No. WO 2002/008748 A3 and C.-J. Huang et al. Characterization of voltage-gated sodium channel blockers by electrical stimulation and fluorescence detection of membrane potential, 24 Nature Biotech. 439-46 (2006), both of which are incorporated by reference in their entirety. The instrument comprises a microtiter plate handler, an optical system for exciting the coumarin dye while simultaneously recording the coumarin and oxonol emissions, a waveform generator, a current- or voltage-controlled amplifier, and parallel electrode pairs that are inserted into assay plate wells. Under integrated computer control, this instrument passes user-programmed electrical stimulus protocols to cells within the wells of the microtiter plate.
16-20 hours prior to running the assay on E-VIPR, HEK cells expressing a truncated form of human NaV 1.8 with full channel activity were seeded into microtiter 384-well plates, pre-coated with matrigel, at a density of 25,000 cells per well. 2.5-5% KIR2.1 Bacmam virus was added to the final cell suspension before seeding into cell plates. HEK cells were grown in Dulbecco's Modified Eagle's Medium (DMEM) supplemented with 10% FBS (Fetal Bovine Serum, qualified; Sigma #F4135), 1% NEAA (Non-Essential Amino Acids, Gibco #11140), 1% HEPES (Gibco #15630), 1% Pen-Strep (Penicillin-Streptomycin; Gibco #15140) and 5 μg/ml Blasticidin (Gibco #R210-01). Cells were expanded in vented cap cell culture flasks, with 90-95% humidity and 5% CO2.
Reagents and Stock Solutions:
100 mg/mL Pluronic F-127 (Sigma #P2443), in dry DMSO
Compound Plates: Corning 384-well Polypropylene Round Bottom #3656
Cell Plates: 384-well tissue culture treated plates (Greiner #781091-2B)
2.5-5% KIR 2.1 Bacmam virus (produced in-house), prepared as described in Section 3.3 of J. A. Fornwald et al., Gene Expression in Mammalian Cells Using BacMam, a Modified Baculovirus System, 1350 Methods in Molecular Biology 95-116 (2016), the entire contents of which are incorporated by reference. The concentration used can be dependent on viral titer of each batch.
5 mM DiSBAC6(3), a voltage sensitive oxonol acceptor (CAS number 169211-44-3; 5-[3-(1,3-dihexylhexahydro-4,6-dioxo-2-thioxo-5-pyrimidinyl)-2-propen-1-ylidene]-1,3-dihexyldihydro-2-thioxo-4,6(1H,5H)-pyrimidinedione), in dry DMSO. The preparation of DiSBAC6(3) is analogous to that of DiSBAC4(3) as described in Voltage Sensing by Fluorescence Resonance Energy Transfer in Single Cells, Gonzalez, J. E. and Tsien, R. Y. (1995) Biophys. J. 69, 1272-1280.
5 mM CC2-DMPE, a commercially available membrane-bound coumarin phospholipid FRET donor (ThermoFisher Scientific catalog number K1017, CAS number 393782-57-5; tetradecanoic acid, 1,1′-[(1R)-1-[8-(6-chloro-7-hydroxy-2-oxo-2H-1-benzopyran-3-yl)-3-hydroxy-3-oxido-8-oxo-2,4-dioxa-7-aza-3-phosphaoct-1-yl]-1,2-ethanediyl]ester) was prepared in dry DMSO. See also, Improved indicators of cell membrane potential that use fluorescence resonance energy transfer, Gonzalez, J. E. and Tsien, R. Y. (1997) Chem. Biol. 4, 269-277.
Voltage Assay Background Suppression Compound (VABSC-1) is prepared in H2O (89-363 mM, range used to maintain solubility)
Human Serum (HS, Millipore #S1P1-01KL, or Sigma SLBR5469V and SLBR5470V as a 50%/50% mixture, for 25% assay final concentration)
Bath 1 Buffer: • Sodium Chloride 160 mM (9.35 g/L), Potassium Chloride, 4.5 mM (0.335 g/L), Glucose 10 mM (1.8 g/L), Magnesium Chloride (Anhydrous) 1 mM (0.095 g/L), Calcium Chloride 2 mM (0.222 g/L), HEPES 10 mM (2.38 g/L) in water. […]

Sequence of human NaV 1.8 (Q9Y5Y9 126-1722 limits assumed): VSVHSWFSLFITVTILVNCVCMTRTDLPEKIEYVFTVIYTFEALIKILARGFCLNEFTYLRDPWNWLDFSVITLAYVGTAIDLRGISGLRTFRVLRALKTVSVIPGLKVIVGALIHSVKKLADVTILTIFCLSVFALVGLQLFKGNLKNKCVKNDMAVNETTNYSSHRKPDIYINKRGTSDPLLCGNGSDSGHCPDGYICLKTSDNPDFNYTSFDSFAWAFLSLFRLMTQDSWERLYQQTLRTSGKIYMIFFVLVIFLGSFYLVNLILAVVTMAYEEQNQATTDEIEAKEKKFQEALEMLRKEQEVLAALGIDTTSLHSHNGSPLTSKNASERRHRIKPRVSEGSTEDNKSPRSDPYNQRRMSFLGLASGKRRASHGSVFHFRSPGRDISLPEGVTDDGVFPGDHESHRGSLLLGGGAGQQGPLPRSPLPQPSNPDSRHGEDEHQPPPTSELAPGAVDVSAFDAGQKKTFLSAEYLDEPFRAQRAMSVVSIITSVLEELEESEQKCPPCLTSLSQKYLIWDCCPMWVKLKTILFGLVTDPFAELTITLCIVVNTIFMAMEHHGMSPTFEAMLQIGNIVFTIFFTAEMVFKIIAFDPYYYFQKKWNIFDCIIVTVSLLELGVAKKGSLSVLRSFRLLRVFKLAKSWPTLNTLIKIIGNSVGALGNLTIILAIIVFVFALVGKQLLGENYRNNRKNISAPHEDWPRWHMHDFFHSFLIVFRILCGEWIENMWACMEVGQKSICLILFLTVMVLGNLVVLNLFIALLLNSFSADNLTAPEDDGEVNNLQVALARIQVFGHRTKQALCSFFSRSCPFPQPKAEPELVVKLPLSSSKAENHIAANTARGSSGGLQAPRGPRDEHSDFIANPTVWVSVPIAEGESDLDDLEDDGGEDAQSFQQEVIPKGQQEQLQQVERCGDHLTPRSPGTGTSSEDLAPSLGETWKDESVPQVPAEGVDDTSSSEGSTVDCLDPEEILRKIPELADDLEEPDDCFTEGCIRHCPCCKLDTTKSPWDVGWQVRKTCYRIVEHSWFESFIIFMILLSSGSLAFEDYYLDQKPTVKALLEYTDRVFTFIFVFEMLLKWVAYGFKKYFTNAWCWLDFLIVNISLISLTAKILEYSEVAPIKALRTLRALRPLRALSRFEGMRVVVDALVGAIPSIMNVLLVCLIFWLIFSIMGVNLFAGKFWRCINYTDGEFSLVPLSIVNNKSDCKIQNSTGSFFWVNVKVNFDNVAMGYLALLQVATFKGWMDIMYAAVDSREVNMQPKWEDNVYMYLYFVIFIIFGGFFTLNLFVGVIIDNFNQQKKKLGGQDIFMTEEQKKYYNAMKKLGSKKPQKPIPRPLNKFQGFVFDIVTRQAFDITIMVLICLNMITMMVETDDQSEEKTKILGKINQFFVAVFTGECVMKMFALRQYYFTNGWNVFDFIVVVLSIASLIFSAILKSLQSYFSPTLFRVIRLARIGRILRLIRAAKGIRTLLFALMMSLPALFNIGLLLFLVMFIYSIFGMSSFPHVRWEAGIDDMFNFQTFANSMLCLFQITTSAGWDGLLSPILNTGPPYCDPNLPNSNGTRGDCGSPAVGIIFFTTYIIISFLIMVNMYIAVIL

IC50 [nM] | SMILES
100 to 1000 | CCOc1c([C@@H]2C[C@](C)(C(F)(F)F)O[C@H]2C(=O)Nc2ccc([C@H](O)CO)nc2)ccc(F)c1F (single isomer, unassigned) [Compound 33, rel-(2R,3S,5R)-N-(6-((S*)-1,2-dihydroxyethyl)pyridin-3-yl)-3-(2-ethoxy-3,4-difluorophenyl)-5-methyl-5-(trifluoromethyl)tetrahydrofuran-2-carboxamide]
≥ 1000 | CCOc1c([C@H]2C[C@@](C)(C(F)(F)F)O[C@@H]2C(=O)Nc2ccc([C@@H](O)CO)nc2)ccc(F)c1F (single isomer, unassigned) [Compound 34, rel-(2S,3R,5S)-N-(6-((R*)-1,2-dihydroxyethyl)pyridin-3-yl)-3-(2-ethoxy-3,4-difluorophenyl)-5-methyl-5-(trifluoromethyl)tetrahydrofuran-2-carboxamide]
10 to 100 | CCOc1c([C@@H]2C[C@](C)(C(F)(F)F)O[C@H]2C(=O)Nc2ccc([C@@H](O)CO)nc2)ccc(F)c1F (single isomer, unassigned) [Compound 35, rel-(2R,3S,5R)-N-(6-((R*)-1,2-dihydroxyethyl)pyridin-3-yl)-3-(2-ethoxy-3,4-difluorophenyl)-5-methyl-5-(trifluoromethyl)tetrahydrofuran-2-carboxamide]
< 10 | CCOc1c([C@H]2[C@H](C(=O)Nc3ccc([C@@H](O)CO)nc3)O[C@@](C)(C(F)(F)F)[C@H]2C)ccc(F)c1C (single isomer, unassigned) [Compound 40, rel-(2R,3S,4S,5R)—N-(6-((R*)-1,2-dihydroxyethyl)pyridin-3-yl)-3-(2-ethoxy-4-fluoro-3-methylphenyl)-4,5-dimethyl-5-(trifluoromethyl)tetrahydrofuran-2-carboxamide]
≥ 1000 | CCOc1c([C@@H]2[C@@H](C(=O)Nc3ccc([C@@H](O)CO)nc3)O[C@](C)(C(F)(F)F)[C@@H]2C)ccc(F)c1C (single isomer, unassigned) [Compound 41, rel-(2S,3R,4R,5S)—N-(6-((R*)-1,2-dihydroxyethyl)pyridin-3-yl)-3-(2-ethoxy-4-fluoro-3-methylphenyl)-4,5-dimethyl-5-(trifluoromethyl)tetrahydrofuran-2-carboxamide]
< 10 | CCOc1c([C@H]2[C@H](C(=O)Nc3ccc([C@H](O)CO)nc3)O[C@@](C)(C(F)(F)F)[C@H]2C)ccc(F)c1C (single isomer, unassigned) [Compound 42, rel-(2R,3S,4S,5R)-N-(6-((S*)-1,2-dihydroxyethyl)pyridine-3-yl)-3-(2-ethoxy-4-fluoro-3-methylphenyl)-4,5-dimethyl-5-(trifluoromethyl)tetrahydrofuran-2-carboxamide]
≥ 1000 | CCOc1c([C@@H]2[C@@H](C(=O)Nc3ccc([C@H](O)CO)nc3)O[C@](C)(C(F)(F)F)[C@@H]2C)ccc(F)c1C (single isomer, unassigned) [Compound 43, rel-(2S,3R,4R,5S)-N-(6-((S*)-1,2-dihydroxyethyl)pyridin-3-yl)-3-(2-ethoxy-4-fluoro-3-methylphenyl)-4,5-dimethyl-5-(trifluoromethyl)tetrahydrofuran-2-carboxamide]
≥ 1000 | COc1c(C2C(C(=O)Nc3ccc(C(O)CO)nc3)OC(C)(C(F)(F)F)C2C)ccc(F)c1C (single isomer, unassigned) [Compound 44, rel-(2S,3R,4R,5S)-N-(6-((S*)-1,2-dihydroxyethyl)138yridine-3-yl)-3-(4-fluoro-2-methoxy-3-methylphenyl)-4,5-dimethyl-5-(trifluoromethyl)tetrahydrofuran-2-carboxamide]
10 to 100 | COc1c([C@H]2[C@H](C(=O)Nc3ccc([C@H](O)CO)nc3)O[C@@](C)(C(F)(F)F)[C@H]2C)ccc(F)c1C (single isomer, unassigned) [Compound 45, rel-(2R,3S,4S,5R)-N-(6-((S*)-1,2-dihydroxyethyl)pyridin-3-yl)-3-(4-fluoro-2-methoxy-3-methylphenyl)-4,5-dimethyl-5-(trifluoromethyl)tetrahydrofuran-2-carboxamide]
≥ 1000 | COc1c([C@@H]2[C@@H](C(=O)Nc3ccc([C@@H](O)CO)nc3)O[C@](C)(C(F)(F)F)[C@@H]2C)ccc(F)c1C (single isomer, unassigned) [Compound 46, rel-(2S,3R,4R,5S)-N-(6-((R*)-1,2-dihydroxyethyl)pyridin-3-yl)-3-(4-fluoro-2-methoxy-3-methylphenyl)-4,5-dimethyl-5-(trifluoromethyl)tetrahydrofuran-2-carboxamide]
< 10 | COc1c([C@H]2[C@H](C(=O)Nc3ccc([C@@H](O)CO)nc3)O[C@@](C)(C(F)(F)F)[C@H]2C)ccc(F)c1C (single isomer, unassigned) [Compound 47, rel-(2R,3S,4S,5R)-N-(6-((R*)-1,2-dihydroxyethyl)pyridin-3-yl)-3-(4-fluoro-2-methoxy-3-methylphenyl)-4,5-dimethyl-5-(trifluoromethyl)tetrahydrofuran-2-carboxamide]
≥ 1000 | COc1c([C@@H]2[C@@H](C(=O)Nc3ccc([C@H](O)CO)nc3)O[C@](C)(C(F)(F)F)[C@@H]2C)ccc(F)c1C(F)F (single isomer, unassigned) [Compound 48, rel-(2S,3R,4R,5S)-3-(3-(difluoromethyl)-4-fluoro-2-methoxyphenyl)-N-(6-((S*)-1,2-dihydroxyethyl)pyridin-3-yl)-4,5-dimethyl-5-(trifluoromethyl)tetrahydrofuran-2-carboxamide]
< 10 | COc1c([C@H]2[C@H](C(=O)Nc3ccc([C@H](O)CO)nc3)O[C@@](C)(C(F)(F)F)[C@H]2C)ccc(F)c1C(F)F (single isomer, unassigned) [Compound 49, rel-(2R,3S,4S,5R)-3-(3-(difluoromethyl)-4-fluoro-2-methoxyphenyl)-N-(6-((S*)-1,2-dihydroxyethyl)pyridin-3-yl)-4,5-dimethyl-5-(trifluoromethyl)tetrahydrofuran-2-carboxamide]
≥ 1000 | COc1c(C2C(C(=O)Nc3ccc(C(O)CO)nc3)OC(C)(C(F)(F)F)C2C)ccc(F)c1C(F)F (single isomer, unassigned) [Compound 50]
< 10 | COc1c(C2C(C(=O)Nc3ccc(C(O)CO)nc3)OC(C)(C(F)(F)F)C2C)ccc(F)c1C(F)F (single isomer, unassigned) [Compound 51]
≥ 1000 | COc1c(C2C(C(=O)Nc3ccc(CO)nc3)OC(C)(C(F)(F)F)C2C)ccc(F)c1C(F)F (single isomer, unassigned) [Compound 52]
< 10 | COc1c(C2C(C(=O)Nc3ccc(CO)nc3)OC(C)(C(F)(F)F)C2C)ccc(F)c1C(F)F (single isomer, unassigned) [Compound 53]
< 10 | COc1c(C2C(C(=O)Nc3cnc(CO)nc3)OC(C)(C(F)(F)F)C2C)ccc(F)c1C(F)F (single isomer, unassigned) [Compound 54]
100 to 1000 | COc1c(C2C(C(=O)Nc3cnc(CO)nc3)OC(C)(C(F)(F)F)C2C)ccc(F)c1C(F)F (single isomer, unassigned) [Compound 55]
≥ 1000 | COc1c([C@@H]2[C@@H](C(=O)Nc3ccc(C(C)O)nc3)O[C@](C)(C(F)(F)F)[C@@H]2C)ccc(F)c1C(F)F (single isomer, unassigned) [Compound 57]
